Assay results reported in patent US8513270B2, “Substituted heterocycles as Janus kinase inhibitors” (Incyte Corporation, priority 2006, dated 2013).
Counter-ions that a name gives are not always drawn.

Experiments:
[1] = molecular target: T1, human JAK1 (a.a. 837-1142) (Homo sapiens, UniProt P23458); test: In vitro JAK kinase assay (HTRF), JAK1; format: biochemical; conditions: JAK1, 90 μM ATP; read-out: EXAMPLE A JAK2-JAK1 HTRF-2 IC50
T1 construct: human JAK1 (a.a. 837-1142); His tag (N); made in house; host or cells: insect cells (baculovirus)
T1 sequence (P23458 849-1154): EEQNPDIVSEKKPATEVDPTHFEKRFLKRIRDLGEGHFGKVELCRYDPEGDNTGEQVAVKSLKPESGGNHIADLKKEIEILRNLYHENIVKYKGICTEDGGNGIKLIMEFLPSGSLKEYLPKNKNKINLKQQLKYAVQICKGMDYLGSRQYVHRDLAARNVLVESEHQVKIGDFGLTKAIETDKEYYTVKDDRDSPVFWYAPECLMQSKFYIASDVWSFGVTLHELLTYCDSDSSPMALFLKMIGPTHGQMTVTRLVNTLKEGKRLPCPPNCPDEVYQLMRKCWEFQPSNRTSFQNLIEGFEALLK
Summary of the method: (§1)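 His-tagged catalytic domains from baculovirus-infected insect cells phosphorylated 500 nM biotinylated peptide in 50 mM Tris pH 7.8, 100 mM NaCl, 5 mM DTT, 0.01% BSA for 1 h at room temperature. ATP was 90 μM (JAK1), 30 μM (JAK2), 3 μM (JAK3). Detection used Eu-Py20/SA-APC; IC50s were derived.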

[2] = system: JAK2_INA61 (cancer cell line dependent on cytokines and JAK/STAT signal transduction); test: Cellular assay: viability of cytokine-dependent cancer cell line (CellTiter-Glo); format: cell-based; conditions: 72 hours, read-out: EXAMPLE B JAK2_INA61 IC50
Experimental: One or more compounds herein were tested for inhibitory activity of JAK targets according to at least one of the following cellular assays.
Compounds were added to the cells in DMSO/media (final concentration 0.2% DMSO) and incubated for 72 hours at 37° C., 5% CO2. The effect of compound on cell viability was assessed using the CellTiter-Glo Luminescent Cell Viability Assay (Promega) followed by TopCount (Perkin Elmer, Boston, Mass.) quantitation. Potential off-target effects of compounds were measured in parallel using a non-JAK driven cell line with the same assay readout. […] All experiments were performed in duplicate.

TF1-BCRABL1 cells = TF1-BCRABL1 cells (Homo sapiens, UniProt P00519); test: ABL1 cell based assay: viability of ABL1-dependent cell line (CellTiter-Glo); conditions: 72 hours, cell viability; read-out: EXAMPLE F JAK2-TF1-BCRABL1 IC50
Sequence of TF1-BCRABL1 cells (P00519 whole entry, change not shown): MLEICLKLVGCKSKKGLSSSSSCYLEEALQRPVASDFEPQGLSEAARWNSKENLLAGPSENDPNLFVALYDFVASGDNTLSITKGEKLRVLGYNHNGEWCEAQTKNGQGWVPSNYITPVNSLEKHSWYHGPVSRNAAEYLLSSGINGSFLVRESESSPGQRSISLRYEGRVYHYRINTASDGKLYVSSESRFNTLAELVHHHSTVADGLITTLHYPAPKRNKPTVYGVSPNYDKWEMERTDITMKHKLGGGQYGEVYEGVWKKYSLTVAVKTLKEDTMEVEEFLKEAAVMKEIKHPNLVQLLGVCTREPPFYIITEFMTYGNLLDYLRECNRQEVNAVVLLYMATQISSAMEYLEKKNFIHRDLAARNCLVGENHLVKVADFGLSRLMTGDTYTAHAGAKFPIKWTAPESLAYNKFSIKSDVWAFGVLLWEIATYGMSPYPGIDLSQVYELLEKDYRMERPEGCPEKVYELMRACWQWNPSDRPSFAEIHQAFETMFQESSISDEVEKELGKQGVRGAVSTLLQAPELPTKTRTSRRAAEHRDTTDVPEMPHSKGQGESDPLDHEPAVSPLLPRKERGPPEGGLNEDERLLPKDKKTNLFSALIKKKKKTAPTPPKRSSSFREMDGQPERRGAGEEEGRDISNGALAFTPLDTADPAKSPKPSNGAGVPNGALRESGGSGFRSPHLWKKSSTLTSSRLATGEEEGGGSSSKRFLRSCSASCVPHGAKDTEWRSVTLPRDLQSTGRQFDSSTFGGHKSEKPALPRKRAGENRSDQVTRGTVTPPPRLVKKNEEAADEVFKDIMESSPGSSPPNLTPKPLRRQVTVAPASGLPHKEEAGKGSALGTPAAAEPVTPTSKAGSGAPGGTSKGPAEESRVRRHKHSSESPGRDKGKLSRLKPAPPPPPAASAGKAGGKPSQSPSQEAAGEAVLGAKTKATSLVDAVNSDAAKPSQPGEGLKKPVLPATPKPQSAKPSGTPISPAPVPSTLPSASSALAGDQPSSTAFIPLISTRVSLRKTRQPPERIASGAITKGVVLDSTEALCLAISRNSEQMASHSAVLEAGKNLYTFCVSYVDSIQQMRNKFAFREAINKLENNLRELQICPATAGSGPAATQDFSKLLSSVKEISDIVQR
Summary of the method: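 ABL1-dependent cells plated at 3000 per well in RPMI 1640 with 10% FBS and exposed to compounds for 72 h at 37° C, 5% CO2, 0.2% DMSO final. Viability read by CellTiter-Glo luminescence; duplicate or more.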

[3] = molecular target: T2, human JAK2 (a.a. 828-1132) (Homo sapiens, UniProt O60674); test: In vitro JAK kinase assay (HTRF), JAK2; format: biochemical; conditions: JAK2, 30 μM ATP; read-out: EXAMPLE A HTS-JAK2 HTRF-2 IC50
T2 construct: JAK2 (a.a. 828-1132); His tag (N); made in house; host or cells: insect cells (baculovirus)
T2 sequence (O60674 828-1132): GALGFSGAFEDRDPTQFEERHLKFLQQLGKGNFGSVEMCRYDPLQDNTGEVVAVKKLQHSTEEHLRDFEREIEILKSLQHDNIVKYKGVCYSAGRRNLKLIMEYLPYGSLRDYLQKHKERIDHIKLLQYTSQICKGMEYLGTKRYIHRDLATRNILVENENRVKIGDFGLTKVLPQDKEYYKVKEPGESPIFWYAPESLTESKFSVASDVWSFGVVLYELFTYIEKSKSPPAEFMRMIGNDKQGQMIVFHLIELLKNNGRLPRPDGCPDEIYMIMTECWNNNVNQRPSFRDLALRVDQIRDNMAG
Summary of the method: as §1

[4] = molecular target: T3, human JAK3 (a.a. 781-1124) (Homo sapiens, UniProt P52333); test: In vitro JAK kinase assay (HTRF), JAK3; format: biochemical; conditions: JAK3, 3 μM ATP; read-out: EXAMPLE A JAK2-JAK3 HTRF-2 IC50
T3 construct: JAK3 (a.a. 781-1124); His tag (N); made in house; host or cells: insect cells (baculovirus)
T3 sequence (P52333 781-1124): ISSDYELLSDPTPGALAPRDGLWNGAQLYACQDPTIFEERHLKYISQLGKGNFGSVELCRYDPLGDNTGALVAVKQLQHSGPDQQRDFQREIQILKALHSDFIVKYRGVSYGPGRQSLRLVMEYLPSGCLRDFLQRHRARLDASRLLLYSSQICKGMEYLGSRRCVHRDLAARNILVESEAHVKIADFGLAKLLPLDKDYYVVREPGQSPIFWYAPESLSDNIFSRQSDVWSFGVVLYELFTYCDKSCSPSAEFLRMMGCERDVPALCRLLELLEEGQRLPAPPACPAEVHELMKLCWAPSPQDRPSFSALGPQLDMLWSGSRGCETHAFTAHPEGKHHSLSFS
Summary of the method: as §1

SMILES | IC50 [1] | IC50 [2] | GI50 (TF1-BCRABL1 cells) | IC50 [3] | IC50 [4]
Cc1ccc(NC(=O)c2cccc(F)c2)cc1-c1ccc2[nH]c3ncncc3c2c1 [Example 44, 3-fluoro-N-[4-methyl-3-(9H-pyrimido[4,5-b]indol-6-yl)-phenyl]benzamide] | ≤ 0.5 µM | > 1 µM | 0.5 to 1 µM | > 1 µM | ≤ 0.5 µM
Cc1ccc(NC(=O)c2cc(C(F)(F)F)ccc2C(F)(F)F)cc1-c1ccc2[nH]c3ncncc3c2c1 [Example 45, N-[4-methyl-3-(9H-pyrimido-[4,5-b]indol-6-yl)phenyl]-2,5-bis(trifluoromethyl)benzamide] | ≤ 0.5 µM | > 1 µM | 0.5 to 1 µM | > 1 µM | > 1 µM
Cc1ccc(NC(=O)c2cc(C(F)(F)F)cc(Cl)c2F)cc1-c1ccc2[nH]c3ncncc3c2c1 [Example 46, 3-chloro-2-fluoro-N-[4-methyl-3-(9H-pyrimido[4,5-b]indol-6-yl)phenyl]-5-(trifluoromethyl)-benzamide] | ≤ 0.5 µM | > 1 µM | ≤ 0.5 µM | ≤ 0.5 µM | > 1 µM
Cc1ccc(NC(=O)Nc2cccc(C(F)(F)F)c2)cc1-c1ccc2c(c1)[nH]c1ncncc12 [Example 47, N-[4-Methyl-3-(9H-pyrimido[4,5-b]indol-7-yl)phenyl]-N′-[3-(trifluoromethyl)-phenyl]urea] | ≤ 0.5 µM | > 1 µM | ≤ 0.5 µM | 0.5 to 1 µM | ≤ 0.5 µM
Cc1ccc(NC(=O)Nc2cccc(C(F)(F)F)c2)cc1-c1ccc2[nH]c3ncncc3c2c1 [Example 48, N-[4-Methyl-3-(9H-pyrimido[4,5-b]indol-6-yl)phenyl]-N′-[3-(trifluoromethyl)-phenyl]urea] | ≤ 0.5 µM | 0.5 to 1 µM | ≤ 0.5 µM | > 1 µM | 0.5 to 1 µM
N#Cc1ccc(C(=O)Nc2cccc(C(F)(F)F)c2)cc1-c1ccc2c(c1)[nH]c1ncncc12 [Example 51, 4-Cyano-3-(9H-pyrimido[4,5-b]indol-7-yl)-N-[3-(trifluoromethyl)phenyl]-benzamide] | ≤ 0.5 µM | > 1 µM | ≤ 0.5 µM | ≤ 0.5 µM | > 1 µM
Cc1cccc(NC(=O)c2ccc(C)c(-c3ccc4c(c3)[nH]c3ncncc34)c2)c1 [Example 53, 4-methyl-N-(3-methyl-phenyl)-3-(9H-pyrimido-[4,5-b]indol-7-yl)benzamide] | ≤ 0.5 µM | 0.5 to 1 µM | ≤ 0.5 µM | ≤ 0.5 µM | ≤ 0.5 µM
Cc1ccc(C(=O)Nc2cccc(OC(F)(F)F)c2)cc1-c1ccc2c(c1)[nH]c1ncncc12 [Example 54, 4-methyl-3-(9H-pyrimido-[4,5-b]indol-7-yl)-N-[3-(trifluoromethoxy)phenyl]-benzamide] | ≤ 0.5 µM | 0.5 to 1 µM | ≤ 0.5 µM | ≤ 0.5 µM | ≤ 0.5 µM
Cc1ccc(C(=O)NCc2cc(F)ccc2F)cc1-c1ccc2c(c1)[nH]c1ncncc12 [Example 55, N-(2,5-difluorobenzyl)-4-methyl-3-(9H-pyrimido-[4,5-b]indol-7-yl)benzamide] | > 1 µM | 0.5 to 1 µM | 0.5 to 1 µM | > 1 µM | ≤ 0.5 µM
Cc1ccc(C(=O)NCc2cccc(C(F)(F)F)c2)cc1-c1ccc2c(c1)[nH]c1ncncc12 [Example 56, 4-methyl-3-(9H-pyrimido-[4,5-b]indol-7-yl)-N-[3-(trifluoromethyl)benzyl]-benzamide] | > 1 µM | > 1 µM | ≤ 0.5 µM | > 1 µM | ≤ 0.5 µM
Cc1cnc(NC(=O)c2ccc(C)c(-c3ccc4c(c3)[nH]c3ncncc34)c2)s1 [Example 57, 4-methyl-N-(5-methyl-1,3-thiazol-2-yl)-3-(9H-pyrimido-[4,5-b]indol-7-yl)benzamide] | ≤ 0.5 µM | > 1 µM | ≤ 0.5 µM | > 1 µM | > 1 µM
O=C(Nc1cccc(C(F)(F)F)c1)c1cccc(-c2ccc3c(c2)[nH]c2ncncc23)c1 [Example 59, 3-(9H-pyrimido[4,5-b]indol-7-yl)-N-[3-(trifluoromethyl)-phenyl]benzamide] | ≤ 0.5 µM | > 1 µM | 0.5 to 1 µM | ≤ 0.5 µM | > 1 µM
COc1ccc(C(=O)Nc2cccc(C(F)(F)F)c2)cc1-c1ccc2c(c1)[nH]c1ncncc12 [Example 60, 4-methoxy-3-(9H-pyrimido-[4,5-b]indol-7-yl)-N-[3-(trifluoromethyl)phenyl]-benzamide] | ≤ 0.5 µM | > 1 µM | ≤ 0.5 µM | ≤ 0.5 µM | 0.5 to 1 µM
Cc1ccc(C(=O)Nc2nnc(C(F)(F)F)s2)cc1-c1ccc2c(c1)[nH]c1ncncc12 [Example 61, 4-methyl-3-(9H-pyrimido-[4,5-b]indol-7-yl)-N-[5-(trifluoromethyl)-1,3,4-thiadiazol-2-yl]benzamide] | > 1 µM | > 1 µM | 0.5 to 1 µM | > 1 µM | ≤ 0.5 µM
Cc1cn(-c2cc(NC(=O)c3ccc(C)c(-c4ccc5c(c4)[nH]c4ncncc45)c3)cc(C(F)(F)F)c2)cn1 [Example 62, 4-methyl-N-[3-(4-methyl-1H-imidazol-1-yl)-5-(trifluoro-methyl)phenyl]-3-(9H-pyrimido[4,5-b]indol-7-yl)-benzamide] | ≤ 0.5 µM | 0.5 to 1 µM | ≤ 0.5 µM | ≤ 0.5 µM | ≤ 0.5 µM
Cc1ccc(C(=O)N[C@H](C)c2ccccc2)cc1-c1ccc2c(c1)[nH]c1ncncc12 [Example 63, 4-methyl-N-[(1R)-1-phenylethyl]-3-(9H-pyrimido[4,5-b]indol-7-yl)benzamide] | > 1 µM | > 1 µM | 0.5 to 1 µM | > 1 µM | 0.5 to 1 µM
Cc1ccc(C(=O)N[C@@H](C)c2ccccc2)cc1-c1ccc2c(c1)[nH]c1ncncc12 [Example 64, 4-methyl-N-[(1S)-1-phenylethyl]-3-(9H-pyrimido[4,5-b]indol-7-yl)benzamide] | > 1 µM | > 1 µM | 0.5 to 1 µM | > 1 µM | ≤ 0.5 µM
Cc1ccc(C(=O)Nc2cccc(S(F)(F)(F)(F)F)c2)cc1-c1ccc2c(c1)[nH]c1ncncc12 [Example 65, 4-methyl-N-[3-(pentafluoro-λ(6)-sulfanyl)phenyl]-3-(9H-pyrimido[4,5-b]indol-7-yl)-benzamide] | ≤ 0.5 µM | 0.5 to 1 µM | ≤ 0.5 µM | ≤ 0.5 µM | ≤ 0.5 µM
Cc1ccc(C(=O)Nc2cccc(C(F)(F)F)c2)cc1-c1ccc2c(c1)[nH]c1ncccc12 [Example 68, 4-Methyl-3-(9H-pyrido[2,3-b]indol-7-yl)-N-[3-(trifluoromethyl)phenyl]benzamide, trifluoroacetate salt] | ≤ 0.5 µM | > 1 µM | ≤ 0.5 µM | ≤ 0.5 µM | ≤ 0.5 µM
Cc1ncc(NC(=O)c2cccc(C(F)(F)F)c2)cc1-c1ccc2c(c1)[nH]c1ncncc12 [Example 70, N-[6-methyl-5-(9H-pyrimido[4,5-b]indol-7-yl)pyridin-3-yl]-3-(trifluoromethyl)benzamide] | ≤ 0.5 µM | 0.5 to 1 µM | ≤ 0.5 µM | ≤ 0.5 µM | ≤ 0.5 µM
